The text below walks through data of patent publication US10858331B1, “Ester nitrates derivatives of aromatic aldehydes with multiple pharmalogic properties to treat sickle cell disease” (VIRGINIA COMMONWEALTH UNIVERSITY, priority 2013, dated 2020).

The structures appear in SMILES notation.

One test relates to SS cells. Kind of test: In vitro RBC anti-sickling (morphological) study with SS cells. In kind it is cell-based, human. The note with it: SS cells, 1 h air then 4% O2, 37° C., 5 h; for inhibition at 500 µM / inhibition at 1000 µM / inhibition at 2000 µM / inhibition at 5000 µM: Homo sapiens, read-out: Inhibition of sickled cells; for inhibition at 1000 µM: 1.0 mM; for inhibition at 2000 µM: 2.0 mM; for inhibition at 5000 µM: 5.0 mM. As for the experimental part:
In vitro RBC morphological (anti-sickling) analysis was conducted at the Children's Hospital of Philadelphia (by Drs. Toshio Asakura and Osheiza Abdulmalik). The anti-sickling effects of 5HMF, TD-7 HCl, TD-7, TD-1, and TD-7-1 were studied by incubating suspensions of SS cells in the absence or presence of three different concentrations of the effectors in the presence of air for 1 h at 37° C. followed by incubation under 4% oxygen at 37° C. for 5 h. All samples were pre-incubated for 1 h with various compounds and then incubated under 4% O2 for 5 h. […] Table 5 represents the concentrations of the effectors along with the % inhibition of sickling cells. The hemolysates that had been prepared from SS cells after incubation with test compounds were also subjected to cation-exchange HPLC as previously reported (Abdulmalik et al., 2005).

Test [1] has as its target T1, Hb (Homo sapiens, UniProt P68871+P69905).
T1 construct: normal whole blood (AA); from tissue; host or cells: normal whole blood (AA), red blood cells
Kind of test: Oxygen equilibrium curve (OEC) study with normal whole blood (AA). The test is classed as cell-based. The note with it: for ΔP50: versus DMSO control. The procedure: (§1) Studies were performed on compounds TD-7, TD-7-1, TD-8, TD-8-1, TD-9 and TD-9-1 using 100 mM stock solution in DMSO and normal whole blood (AA). TD-7, TD-8 and TD-9 are compounds with a hydroxymethyl group on the pyridine ring, while TD-7-1, TD-8-1 and TD-9-1 are the respective nitrate ester derivatives. The whole blood samples had hematocrit values ranging from 29-36%, and cell-free purified Hb of 10-12 g/dL in the absence or presence of effectors solubilized in DMSO at 2 mM or in some cases with varying compound concentration. The blood samples were incubated in an IL 237 tonometer (Instrumentation Laboratories, Inc., Lexington, Mass.) for about 5-7 min at 37° C. against a gas mixture containing O2 concentrations of 0.804%, 2.935% and 5.528% and allowed to equilibrate at O2 tensions of 6, 20 and 40 mmHg. After equilibration, the sample was removed via syringe and aspirated into a ABL 700 series table top automated blood gas analyzer (Radiometer America, Inc., Westlake, Ohio) to determine total hemoglobin (tHb), hematocrit (Hct), pH, pCO2, partial pressure of oxygen (pO2), and the Hb oxygen saturation values (sO2). Similar procedures were followed for concentration and time dependence studies. The measured values of pO2 and sO2 at each oxygen saturation level were then subjected to a non-linear regression analysis using the program Scientist (Micromath, Salt Lake City, Utah) with the following equation: […]
This equation was used to calculate P50 and Hill coefficient (N) values. Corresponding control experiments without the test compound (P50control) but containing DMSO were also performed.

A further test concerns the target T2, cell-free Hb (Homo sapiens, UniProt P68871+P69905).
T2 construct: Hemoglobin was prepared from centrifuging human blood; from tissue; host or cells: human blood (red cells lysed, Hb purified on DEAE sephacel)
Nature of the test: OEC study with normal cell-free Hb. The test is classed as biochemical. The note with it: cell-free Hb 12 mg/mL, 2 mM compound; for N (Hill coefficient) / P50: n = 1; for ΔP50: versus control P50 12.5. As for the experimental part:
as §1
Hemoglobin was prepared from centrifuging human blood at 2500 rpms for 20 min at 4° C. The supernatant solution, debris and plasma were discarded from the centrifuge bottles, leaving behind RBCs. The RBCs were washed thrice with an excess volume of 0.9% NaCl, and once with 1.0% NaCl, each time centrifuging and discarding the supernatant solution. The RBCs were pooled together into a chilled flask and hemolyzed to free Hb by adding 1-2 volume excess of 50 mM Tris buffer, pH 8.6 (containing EDTA). The mixture was allowed to stand in ice for 30 min with occasional stirring. The Hb solution was centrifuged at 10,000 rpm for 2 h at 4° C. The supernatant Hb solution was pooled into a chilled flask and NaCl (40-60 mg/mL Hb solution) was slowly added with stirring. Hemoglobin solution was centrifuged at 10,000 rpm for 2 h at 4° C. to remove any cell stroma remnants. The clear supernatant Hb solution was pooled into a chilled flask and the “syrupy” pellet was discarded. Hemoglobin solution was dialyzed against 50 mM Tris buffer, pH 8.6 (containing EDTA) at 4° C. to remove NaCl and/or other low molecular weight impurities. Strips of standard cellulose dialysis tubing that had been washed 3-4 times and boiled for 10 min in deionized water were used for dialysis. The dialyzed Hb was further purified by ion-exchange chromatography using DEAE sephacel to exclude 2,3-DPG. The resin was equilibrated with 50 mM Tris buffer, pH 8.6, and the Hb solution was run through the column with 50 mM Tris buffer, pH 8.6 (containing EDTA). The pooled fractions were concentrated with an Amicon stirred cell (Amicon, Model 402), to a final HbA concentration of about 80-120 mg/mL. Concentrated HbA was stored at −80° C.
As a result of the low left-shifting activities of TD-8 and TD-9, as well as the nitrate ester derivatives, we further evaluated the activity of the compounds TD-1, TD-7, TD-7-1, TD-8, and TD-9 using cell-free Hb (devoid of any proteins, enzymes, plasma and cell membranes) to determine whether plasma protein or RBC membrane could have any effect on compound biological activity. Previous studies have shown limited effect of plasma protein and RBC membrane on SHMF activity. The same tonometry procedure used on whole blood was used with the cell-free hemoglobin using 2 mM compound and 12 mg/mL of Hb.

Test [2] has as its target T1, Hb. Kind of test: Time-dependent OEC study with whole blood. The note with it: 0.5 mM; for P50: whole blood (Hct~34%); for N (Hill coefficient) / ΔP50: whole blood. In kind it is cell-based. The procedure: as §1
All samples were pre-incubated with whole blood (Hct˜34%) with the specified compounds 0.5 mM concentrations for the specified time. The control experiment without test compound (P50 (control)) contains the same concentration of DMSO used to solubilize the test solution (P50 (sample)).

Where [3] appears, read: 2 mM compound, 1.5 h incubation.
Setting [4] is: 2 mM compound, 1.5 h incubation, 37° C.

The inhibition is the share of the control response that was lost under treatment.

T1 sequence (P69905 2-142 limits assumed): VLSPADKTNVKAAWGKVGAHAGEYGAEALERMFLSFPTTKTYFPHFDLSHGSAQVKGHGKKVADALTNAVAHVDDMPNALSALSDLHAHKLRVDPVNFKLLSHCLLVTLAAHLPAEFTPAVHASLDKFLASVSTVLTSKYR
T1 sequence (P68871 2-147 limits assumed): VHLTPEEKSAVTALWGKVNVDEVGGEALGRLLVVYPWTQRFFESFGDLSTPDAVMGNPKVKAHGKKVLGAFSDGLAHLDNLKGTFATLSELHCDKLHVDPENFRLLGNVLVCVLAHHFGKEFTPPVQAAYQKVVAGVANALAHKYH
T2 sequence (P69905 2-142 limits assumed): as the sequence (P69905 2-142 limits assumed) above
T2 sequence (P68871 2-147 limits assumed): as the sequence (P68871 2-147 limits assumed) above

In the case of `COc1ccc(OCc2cccnc2)c(C=O)c1` [INN-312, reference compound], the “Inhibition of sickled cells” value in the test on SS cells (0.5 mM) amounted to 15%.

With `COc1ccc(C=O)c(OCc2cccc(CO)n2)c1` [TD-9, 2-((6-(Hydroxymethyl)pyridin-2-yl)methoxy)-4-methoxybenzaldehyde], on Hb [1] (setting [3]), the “N (Hill coefficient)” value is reported as 1.6 ± 0.3^c† and the ΔP50 is −10.2 mmHg. In addition, the P50 on Hb [1] (setting [4]) is on record as 21.1 ± 1.2^c† mmHg. Besides, the inhibition at 500 µM with SS cells (0.5 mM) was found to be 26%. In the test on SS cells, the inhibition at 1000 µM stood at 35% and the inhibition at 2000 µM is 57%. Also, at cell-free Hb, the “N (Hill coefficient)” value worked out at 1.7, the P50 was found to be 6.8 mmHg and the ΔP50 is given as −5.7 mmHg.

Turning to `COc1ccc(C=O)cc1OCc1cccc(CO)n1` [TD-8, 3-((6-(Hydroxymethyl)pyridine-2-yl)methoxy)-4-methoxybenzaldehyde], at Hb [1] (setting [3]), the “N (Hill coefficient)” value is recorded as 1.9 ± 0.1^c† and the ΔP50 is reported as −5.4 mmHg. For the same molecule, the P50 on Hb [1] (setting [4]) was 25.9 ± 2.5^c† mmHg. Further, in the test with SS cells (0.5 mM), the inhibition at 500 µM was found to be 14%. Besides, in the test on SS cells, the inhibition at 1000 µM came out at 20% and the inhibition at 2000 µM was found to be 38%. Further, on cell-free Hb, the “N (Hill coefficient)” value is given as 1.9, the P50 is given as 7.6 mmHg and the ΔP50 is −4.9 mmHg.

For `COc1cc(C=O)ccc1O` [vanillin, reference compound], the inhibition at 5000 µM in the test on SS cells was 12%.

On to `O=Cc1ccc(CO)o1` [Compound 5HMF, 5-(hydroxymethyl) furfural, reference compound], for which the P50 at Hb [2] (incubation 1 h) worked out at 29.8 ± 0.2 mmHg; on Hb [2] (incubation 2 h) it was 29.2 ± 0.3 mmHg; on Hb [2] (incubation 4 h), 29.2 ± 0.1 mmHg; on Hb [2] (incubation 6 h), 30.0 ± 0.1 mmHg; at Hb [2] (incubation 10 h), 31.8 ± 0.1 mmHg; on Hb [2] (incubation 12 h), 32.8 ± 0.1 mmHg. Moreover, the P50 on Hb [1] (setting [4]) is given as 20.2 ± 2.0^c† mmHg; at cell-free Hb, 8.3 mmHg. For the same molecule, the “N (Hill coefficient)” value at Hb [2] (incubation 1 h) turned out to be 2.2 ± 0.1; at Hb [2] (incubation 2 h) it was 2.2 ± 0.1; at Hb [2] (incubation 4 h) it was 2.1 ± 0.1; on Hb [2] (incubation 6 h), 2.1 ± 0.1; at Hb [2] (incubation 10 h), 2.1 ± 0.1; at Hb [2] (incubation 12 h) it was 2.0 ± 0.1. Further, the results for the “N (Hill coefficient)” value on Hb [1] (setting [3]) and at cell-free Hb were 1.8 ± 0.1^c† and 2.0, respectively. The ΔP50 on Hb [2] (incubation 1 h) is −2.9 mmHg; on Hb [2] (incubation 2 h) it was −3.8 mmHg; on Hb [2] (incubation 4 h), −3.9 mmHg; at Hb [2] (incubation 6 h), −4.2 mmHg; on Hb [2] (incubation 10 h), −3.3 mmHg; on Hb [2] (incubation 12 h) it was −3.3 mmHg. Besides, the ΔP50 on Hb [1] (setting [3]) is listed as −11.1 mmHg; at cell-free Hb, −4.2 mmHg. Moreover, in the test on SS cells (0.5 mM), the inhibition at 500 µM was found to be 4%. Also, the inhibition at 1000 µM with SS cells turned out to be 17%. Moreover, in the test on SS cells, the inhibition at 2000 µM was 35%. In the test on SS cells, the inhibition at 5000 µM came out at 75%.

In the case of `COc1ccc(OCc2cccc(CO)n2)c(C=O)c1` [TD-7, 2-((6-(Hydroxymethyl)pyridin-2-yl)methoxy)-5-methoxybenzaldehyde], the P50 at Hb [2] (incubation 1 h) was found to be 28.2 ± 0.9 mmHg; at Hb [2] (incubation 2 h), 28.2 ± 0.8 mmHg; at Hb [2] (incubation 4 h) it was 28.8 ± 0.6 mmHg; at Hb [2] (incubation 6 h), 29.1 ± 0.6 mmHg; at Hb [2] (incubation 10 h) it was 30.6 ± 1.0 mmHg; at Hb [2] (incubation 12 h), 31.1 ± 0.7 mmHg. For the same molecule, the P50 at Hb [1] (0.1 mM compound) is on record as 30.1^d* mmHg; on Hb [1] (0.5 mM compound), 25.9^d* mmHg; on Hb [1] (1 mM compound) it was 23.2^d* mmHg; at Hb [1] (setting [4]), 14.3 ± 4.3^c† mmHg; at cell-free Hb, 7.6 mmHg. In addition, the “N (Hill coefficient)” value turned out to be 2.2 ± 0.2 on Hb [2] (incubation 1 h); 2.1 ± 0.1 at Hb [2] (incubation 2 h); 2.1 ± 0.1 on Hb [2] (incubation 4 h); 2.0 ± 0.2 at Hb [2] (incubation 6 h); 2.0 ± 0.1 on Hb [2] (incubation 10 h); 2.0 ± 0.2 on Hb [2] (incubation 12 h). For the same molecule, the “N (Hill coefficient)” value was 2.5^d* on Hb [1] (0.1 mM compound); 2.1^d* on Hb [1] (0.5 mM compound); 1.7^d* on Hb [1] (1 mM compound); 1.3 ± 0.3^c† at Hb [1] (setting [3]); 1.8 on cell-free Hb. Further, the ΔP50 at Hb [2] (incubation 1 h) was −4.5 mmHg; at Hb [2] (incubation 2 h), −4.8 mmHg; at Hb [2] (incubation 4 h), −4.3 mmHg; on Hb [2] (incubation 6 h), −5.1 mmHg; on Hb [2] (incubation 10 h), −4.5 mmHg; at Hb [2] (incubation 12 h), −5.0 mmHg. Further, the ΔP50 is −0.5 mmHg at Hb [1] (0.1 mM compound); −4.7 mmHg on Hb [1] (0.5 mM compound); −7.4 mmHg on Hb [1] (1 mM compound); −17.0 mmHg on Hb [1] (setting [3]); −4.9 mmHg at cell-free Hb. Also, the inhibition at 500 µM in the test with SS cells (0.5 mM) is 95%. The inhibition at 1000 µM in the test on SS cells stood at 95%. For the same molecule, the inhibition at 2000 µM in the test on SS cells is 100%. The inhibition at 5000 µM in the test with SS cells amounted to 100%.
